Laboratory results published in article PMC8115122, “Development of Fluorescent and Biotin Probes Targeting NLRP3” (Frontiers in Chemistry, 2021).

Experiments:
[1] = test system: AIM2-dependent cell death; assay: LDH release (pyroptosis) after LPS and poly(dA:dT), AIM2-dependent; assay type: cell-based, murine; conditions: LPS + poly(dA:dT)
Description: […]. All data are means ± SEM (n = 3), Student's t-test. *P ≤ 0.05, **P ≤ 0.01, ***P ≤ 0.001.
To assess pyroptosis, cytosolic lactate dehydrogenase (LDH) release was measured as a marker of cell lysis. […] […]. All assays were performed according to the manufacturer's instructions. A two-tailed unpaired t-test was performed using GraphPad Prism 9.

AIM2 inflammasome = assay: IL-1β release (HTRF) after LPS priming and poly(dA:dT) transfection, AIM2 inflammasome; conditions: poly(dA:dT)
Description: The following experiments were performed with probes 1–4 in immortalized murine bone marrow-derived macrophages. […] For this purpose, AIM2 was stimulated by transfection with poly(deoxyadenylic-deoxythymidylic) acid [poly(dA:dT)] after pretreatment with LPS. A Homogeneous Time Resolved Fluorescence (HTRF) assay was employed to determine the release of IL-1β (Figure 5).

[2] = test system: immortalized murine bone marrow-derived macrophages; assay: CellTiter-Blue cell viability assay; assay type: cell-based; conditions: 4 h in Opti-MEM, tested 625 nM to 40 μM
Description: Next, the probes were examined in cell culture experiments. First, we determined the cytotoxicity of probes 1–4 at different concentrations between 625 nM and 40 μM in immortalized murine bone marrow-derived macrophages (Figure 4).
Figure 4 Cell viability of immortalized murine bone marrow-derived macrophages after treatment with probes 1–4. Cells were treated with the probes at different concentrations in Opti-MEM for 4 h. Cell viability was assessed using the CellTiter-Blue cell viability assay.
NLRP3 KO immortalized murine bone marrow-derived macrophages overexpressing mouse NLRP3-FLAG and human ASC-mCerulean were seeded in 96 well plates and incubated overnight. Cells were treated with the fluorescent probes (1 and 2) and the biotin-tagged probes (3 and 4) at different concentrations in Opti-MEM for 4 h. Subsequently, cell viability was assessed using CellTiter-Blue® cell viability assay according to the manufacturer's instructions.

NLRP3 inflammasome = assay: IL-1β release (HTRF) after LPS priming and nigericin, NLRP3 inflammasome; assay type: cell-based, murine; conditions: for effect on cytokine (IL-1β) release: 20 μM
Description: The following experiments were performed with probes 1–4 in immortalized murine bone marrow-derived macrophages. Nigericin, an antibiotic carboxylate ionophore, was used as the activator of the NLRP3 inflammasome, owing to its ability to induce a potassium efflux. […] For this purpose, AIM2 was stimulated by transfection with poly(deoxyadenylic-deoxythymidylic) acid [poly(dA:dT)] after pretreatment with LPS. A Homogeneous Time Resolved Fluorescence (HTRF) assay was employed to determine the release of IL-1β (Figure 5).
All data are means ± SEM (n = 3), Student's t-test. *P ≤ 0.05, **P ≤ 0.01, ***P ≤ 0.001.
NLRP3 KO Immortalized murine bone marrow-derived macrophages overexpressing mouse NLRP3-Flag and human ASC-mCerulean were seeded in 96-well plates and incubated for 16 h. Cells were treated with 400 ng/mL ultrapure LPS for 3 h. […] Subsequently, to induce NLRP3 inflammasome activation, cells were treated with 10 μM nigericin for 1.5 h. As controls, to activate the AIM2 inflammasome, cells were transfected with 200 ng of poly(dA:dT) using 0.5 μL lipofectamine 2,000 per well for 4 h. Supernatants were collected to measure cytosolic LDH release by an LDH assay and IL-1ß release by Homogeneous Time Resolved Fluorescence (HTRF). All assays were performed according to the manufacturer's instructions. A two-tailed unpaired t-test was performed using GraphPad Prism 9.

[3] = test system: NLRP3-dependent cell death; assay: LDH release (pyroptosis) after LPS and nigericin, NLRP3-dependent; assay type: cell-based, murine; conditions: LPS + nigericin
Description: NLRP3 KO Immortalized murine bone marrow-derived macrophages overexpressing mouse NLRP3-Flag and human ASC-mCerulean were seeded in 96-well plates and incubated for 16 h. Cells were treated with 400 ng/mL ultrapure LPS for 3 h. […] Subsequently, to induce NLRP3 inflammasome activation, cells were treated with 10 μM nigericin for 1.5 h. […] Supernatants were collected to measure cytosolic LDH release by an LDH assay and IL-1ß release by Homogeneous Time Resolved Fluorescence (HTRF). All assays were performed according to the manufacturer's instructions. A two-tailed unpaired t-test was performed using GraphPad Prism 9.

[4] = biological target: human NLRP3-PYD-NACHT domain protein (Homo sapiens, UniProt Q96P20); assay: SPR single-cycle kinetic binding to immobilized biotinylated NLRP3-PYD-NACHT; conditions: for kd, first-order off-rate constant for dissociation: SPR, 25 °C, 1:1 binding model; for kon: read-out: ka, second-order on-rate constant for association
Sequence of human NLRP3-PYD-NACHT domain protein (Q96P20 1-649 limits assumed): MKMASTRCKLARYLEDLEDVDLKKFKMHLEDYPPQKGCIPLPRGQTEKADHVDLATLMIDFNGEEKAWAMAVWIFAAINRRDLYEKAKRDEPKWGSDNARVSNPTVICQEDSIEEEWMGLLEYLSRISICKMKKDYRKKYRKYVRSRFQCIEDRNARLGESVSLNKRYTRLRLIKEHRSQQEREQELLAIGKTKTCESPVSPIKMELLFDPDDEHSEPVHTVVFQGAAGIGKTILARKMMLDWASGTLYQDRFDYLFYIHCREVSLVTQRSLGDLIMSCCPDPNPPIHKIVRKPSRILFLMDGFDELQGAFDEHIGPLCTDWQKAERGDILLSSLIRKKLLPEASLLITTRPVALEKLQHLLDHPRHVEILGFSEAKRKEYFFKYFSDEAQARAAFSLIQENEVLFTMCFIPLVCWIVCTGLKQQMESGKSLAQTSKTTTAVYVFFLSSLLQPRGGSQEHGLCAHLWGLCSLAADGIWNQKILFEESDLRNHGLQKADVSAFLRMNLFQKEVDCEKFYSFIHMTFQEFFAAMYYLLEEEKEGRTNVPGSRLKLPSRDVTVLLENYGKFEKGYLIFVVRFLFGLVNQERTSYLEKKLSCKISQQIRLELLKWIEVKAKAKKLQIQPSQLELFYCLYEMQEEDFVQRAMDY
Description: HEK293T cells were transiently co-transfected with human avi-FLAG-His10-NLRP3-PYD-NACHT domain (pIRES puro 3 vector) and BirA (pcDNA3.1 vector) for in-cell biotinylation at the lysine amino group of the Avi-tag. […] Eluted protein was stored snap frozen in liquid nitrogen, aliquoted, and stored at −80 °C.
(§1) SPR experiments were performed using a Biacore 8K instrument (GE Healthcare). The flow system was cleaned using the maintenance “Desorb” function (Desorb Kit, GE Healthcare). […] Biotinylated NLRP3-PYD-NACHT protein (2 μL/min, 900 s) was immobilized on the sensor chip flow cell 2. The flow system was washed using 50% isopropanol in 1 M NaCl and 50 mM NaOH. Free streptavidin binding sites were blocked by four consecutive 2-min injections (1,000 nM, 10 μL/min) of Biotin-PEG (Mn = 2,300 Da) (Sigma Aldrich). […] Data were collected at a rate of 10 Hz. The binding data were double referenced by blank cycle and reference flow cell subtraction. Data were corrected by a 4-point solvent correction. For kinetic binding experiments, processed data were fitted to a 1:1 interaction model using the Biacore Insight Evaluation Software (version 3.0.12.15655).

human NLRP3-PYD-NACHT = human NLRP3-PYD-NACHT (Homo sapiens, UniProt Q96P20); assay: SPR competition mode (second ligand injected 120 s after the first); conditions: competition with CRID3/MCC950, equimolar, 10-times the kinetic KD of the test compound, either order of injection
Sequence of human NLRP3-PYD-NACHT (Q96P20 1-649 limits assumed): as above
Description: as §1

[5] = concentrations of Figure 5 (not given)

Structure (SMILES) | AIM2-dependent cell death (LDH release) ([1]; 2.5 μM) | AIM2-dependent IL-1β release (AIM2 inflammasome; [5]) | non-toxic up to concentration [2] | inhibition of IL-1β release (NLRP3 inflammasome; 10 μM) | NLRP3-dependent cell death (LDH release) ([3]; 10 μM) | AIM2-dependent cell death (LDH release) ([1]; 10 μM) | Kd [4] [nM] | kd, first-order off-rate constant for dissociation [4] [s⁻¹] | kon [4] [M⁻¹ s⁻¹] | some cytotoxicity at concentrations higher than [2] | inhibition of IL-1β release (NLRP3 inflammasome; 2.5 μM) | NLRP3-dependent cell death (LDH release) ([3]; 2.5 μM) | response change indicative of a second binding site (human NLRP3-PYD-NACHT) | AIM2-dependent IL-1β release (AIM2 inflammasome; 2.5 μM) | AIM2-dependent IL-1β release (AIM2 inflammasome; 20 μM, data not shown, attributed to cytotoxicity) | effect on cytokine (IL-1β) release (NLRP3 inflammasome) | melting point [°C]
CC(C)(O)c1coc(S(=O)(=O)NC(=O)Nc2c3c(cc4c2CCC4)CCC3)c1 [CRID3/MCC950, reference compound] | but not the AIM2-dependent cell death | did not affect this process |  |  |  |  |  |  |  |  |  |  |  |  |  |  | 
O=C(COCCOCCNC(=O)c1cc2cc3c4c(c2oc1=O)CCCN4CCC3)NCc1ccc(S(=O)(=O)NC(=O)Nc2c3c(cc4c2CCC4)CCC3)cc1 [Compound 1, N-(2-(2-(2-([4-(N-([1,2,3,5,6,7-Hexahydro-s-indacen-4-yl]carbamoyl)sulfamoyl)benzyl]amino)-2-oxoethoxy)ethoxy)ethyl)-11-oxo-2,3,6,7-tetrahydro-1H,5H,11H-pyrano[2,3-f]pyrido[3,2,1-ij]quinoline-10-carboxamide] |  | did not affect this process | up to 10 μM | complete inhibition | prevented | but not the AIM2-dependent cell death | 813 | 0.01 | 13000 |  |  |  |  |  |  |  | 
O=C(Nc1c2c(cc3c1CCC3)CCC2)NS(=O)(=O)c1ccc(CNC(=O)c2cc3cc4c5c(c3oc2=O)CCCN5CCC4)cc1 [Compound 2] | but not the AIM2-dependent cell death |  |  |  |  |  | 322 | 0.0033 | 10000 | higher than 2.5 μM | complete inhibition | prevented | No significant response change | only a slightly reduced AIM2-dependent release of IL-1β | reduced AIM2-dependent IL-1β release |  | 
O=C(CCCC[C@H]1SC[C@H]2NC(=O)N[C@H]21)NCCOCCOCC(=O)NCc1ccc(S(=O)(=O)NC(=O)Nc2c3c(cc4c2CCC4)CCC3)cc1 [Compound 3, N-(2-(2-(2-([4-(N-([1,2,3,5,6,7-Hexahydro-s-indacen-4-yl]carbamoyl)sulfamoyl)benzyl]amino)-2-oxoethoxy)ethoxy)ethyl)-5-([3aR,4R,6aS]-2-oxohexahydro-1H-thieno[3,4-d]imidazol-4-yl)pentanamide] |  |  | up to 40 μM |  |  |  | 1030 | 0.022 | 22000 |  |  |  |  |  |  | did not significantly affect the cytokine release | 140 to 142
O=C(CCCCC1SCC2NC(=O)NC21)NCc1ccc(S(=O)(=O)NC(=O)Nc2c3c(cc4c2CCC4)CCC3)cc1 (centres unmarked) [Compound 4] |  |  | up to 40 μM |  |  |  | 611 | 0.0088 | 14000 |  |  |  | No significant response change |  |  | did not significantly affect the cytokine release | 
